Some results are limits rather than exact numbers.

As a reminder, the EC50 is the concentration that produces a half-maximal response.

The assay has as its target CFTR (Homo sapiens, UniProt P13569). The assay can be described thus: Membrane Potential Dye, Enteroid Assay B. The format is cell-based. The following applies: for EC50: read-out: Ent. B EC50. As to the method:
Base medium (ADF+++) consisted of Advanced DMEM/Ham's F12, 2 mM Glutamax, 10 mM HEPES, 1 µg/mL penicillin/streptomycin.
Intestinal enteroid maintenance medium (IEMM) consisted of ADF+++, 1× B27 supplement, 1× N2 supplement, 1.25 mM N-acetyl cysteine, 10 mM Nicotinamide, 50 ng/mL hEGF, 10 nM Gastrin, 1 pg/mL hR-spondin-1, 100 ng/mL hNoggin, TGF-b type 1 inhibitor A-83-01, 100 μg/mL Primocin, […] P38 MAPK inhibitor SB202190.
Bath 1 Buffer consisted of 1 mM MgCl2, 160 mM NaCl, 4.5 mM KCl, 10 mM HEPES, 10 mM Glucose, 2 mM CaCl2).
Chloride Free Buffer consisted of 1 mM Magnesium Gluconate, 2 mM Calcium Gluconate, 4.5 mM Potassium Gluconate, 160 mM Sodium Gluconate, 10 mM HEPES, 10 mM Glucose.
Bath1 Dye Solution consisted of Bath 1 Buffer, 0.04% Pluronic F127, […] Methyl Oxonol, 30 μM CaCCinh-A01, 30 μM Chicago Sky Blue.
Chloride Free Dye Solution consisted of Chloride Free Buffer, 0.04% Pluronic F127, 20 μM Methyl Oxonol, 30 μM CaCCinh-A01, 30 μM Chicago Sky Blue.
Chloride Free Dye Stimulation Solution consisted of Chloride Free Dye Solution, 10 μM forskolin, 100 μM IBMX, and 300 nM Compound III.
Human intestinal epithelial enteroid cells were obtained from the Hubrecht Institute for Developmental Biology and Stem Cell Research, Utrecht, The Netherlands and expanded in T-Flasks as previously described (Dekkers J F, Wiegerinck C L, de Jonge H R, Bronsveld I, Janssens H M, de Winter-de Groot K M, Brandsma A M, de Jong N W M, Bijvelds M J C, Scholte B J, Nieuwenhuis E E S, van den Brink S, Clevers H, van der Ent C K, Middendorp S and M Beekman J M. A functional CFTR assay using primary cystic fibrosis intestinal organoids. Nat Med. 2013 July; 19(7):939-45.).
Cells were recovered in cell recovery solution, collected by centrifugation at 650 rpm for 5 min at 4° C., resuspended in TryPLE and incubated for 5 min at 37° C. Cells were then collected by centrifugation at 650 rpm for 5 min at 4° C. and resuspended in IEMM containing 10 μM ROCK inhibitor (RI). The cell suspension was passed through a 40 μm cell strainer and resuspended at 1×10^6 cells/mL in IEMM containing 10 μM RI. Cells were seeded at 5000 cells/well into multi-well plates and incubated for overnight at 37° C., 95% humidity and 5% CO2 prior to assay.
Enteroid cells were incubated with test compound in IEMM for 18-24 hours at 37° C., 95% humidity and 5% CO2. […] Briefly, cells were washed 5 times in Bath 1 Buffer. Bath 1 Dye Solution was added and the cells were incubated for 25 min at room temperature. Following dye incubation, cells were washed 3 times in Chloride Free Dye Solution. Chloride transport was initiated by addition of Chloride Free Dye Stimulation Solution and the fluorescence signal was read for 15 min. […] Chloride transport was then expressed as a percentage of the chloride transport following treatment with 1 μM (14S)-8-[3-(2-{Dispiro[2.0.2.1]heptan-7-yl}ethoxy)-1H-pyrazol-1-yl]-12,12-dimethyl-2λ^6-thia-3,9,11,18,23-pentaazatetracyclo[17.3.1.111,14.05,10]tetracosa-1(22),5,7,9,19(23),20-hexaene-2,2,4-trione, 3 μM (R)-1-(2,2-difluorobenzo[d][1,3]dioxol-5-yl)-N-(1-(2,3-dihydroxypropyl)-6-fluoro-2-(1-hydroxy-2-methylpropan-2-yl)-1H-indol-5-yl)cyclopropanecarboxamide and 300 nM acute N-[2,4-bis(1,1-dimethylethyl)-5-hydroxyphenyl]-1,4-dihydro-4-oxoquinoline-3-carboxamide triple combination control (% Activity).

CFTR, sequence (P13569 with tags, fused parts or gaps DEL508-508): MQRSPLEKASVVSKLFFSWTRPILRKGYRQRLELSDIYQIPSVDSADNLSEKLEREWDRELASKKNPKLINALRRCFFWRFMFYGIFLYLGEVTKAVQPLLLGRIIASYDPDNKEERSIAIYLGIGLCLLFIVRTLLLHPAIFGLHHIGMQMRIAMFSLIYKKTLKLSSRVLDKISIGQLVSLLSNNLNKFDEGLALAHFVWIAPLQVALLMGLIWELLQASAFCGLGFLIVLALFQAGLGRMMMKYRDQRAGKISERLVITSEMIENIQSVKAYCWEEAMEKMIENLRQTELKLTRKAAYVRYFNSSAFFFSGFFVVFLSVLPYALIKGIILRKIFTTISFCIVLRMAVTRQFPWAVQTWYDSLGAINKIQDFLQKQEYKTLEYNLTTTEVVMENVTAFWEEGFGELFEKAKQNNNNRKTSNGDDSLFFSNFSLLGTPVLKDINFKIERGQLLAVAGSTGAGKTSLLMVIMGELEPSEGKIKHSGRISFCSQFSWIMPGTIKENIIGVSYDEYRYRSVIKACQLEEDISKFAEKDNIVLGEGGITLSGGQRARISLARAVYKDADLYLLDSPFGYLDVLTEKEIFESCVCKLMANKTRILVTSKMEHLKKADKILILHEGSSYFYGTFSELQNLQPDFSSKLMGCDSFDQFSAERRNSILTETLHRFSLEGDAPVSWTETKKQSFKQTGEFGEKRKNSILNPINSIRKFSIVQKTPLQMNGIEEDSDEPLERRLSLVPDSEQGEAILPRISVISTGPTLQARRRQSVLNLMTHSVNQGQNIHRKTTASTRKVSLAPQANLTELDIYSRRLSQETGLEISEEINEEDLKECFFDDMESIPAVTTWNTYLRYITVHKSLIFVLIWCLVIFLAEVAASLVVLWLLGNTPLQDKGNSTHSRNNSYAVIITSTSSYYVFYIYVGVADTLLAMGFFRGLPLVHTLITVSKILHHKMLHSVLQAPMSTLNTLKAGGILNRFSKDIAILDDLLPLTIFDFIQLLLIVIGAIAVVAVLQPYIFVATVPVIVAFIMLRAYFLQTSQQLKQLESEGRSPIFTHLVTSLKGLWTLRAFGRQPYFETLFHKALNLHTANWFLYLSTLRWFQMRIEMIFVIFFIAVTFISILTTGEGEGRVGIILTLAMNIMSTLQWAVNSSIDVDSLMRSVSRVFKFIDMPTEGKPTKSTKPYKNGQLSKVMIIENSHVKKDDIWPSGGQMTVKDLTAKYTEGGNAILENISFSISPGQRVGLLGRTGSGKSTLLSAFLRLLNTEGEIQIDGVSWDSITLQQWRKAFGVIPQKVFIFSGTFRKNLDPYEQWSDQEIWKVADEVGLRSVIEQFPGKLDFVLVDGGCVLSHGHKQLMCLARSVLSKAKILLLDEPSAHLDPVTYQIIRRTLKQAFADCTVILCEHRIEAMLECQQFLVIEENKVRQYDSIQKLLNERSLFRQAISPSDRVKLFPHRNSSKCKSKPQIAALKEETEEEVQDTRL

On to `Cc1cccc(C)c1-c1nc2nc(c1C)OC[C@@H](CC(C)(C)C)N(C1CC3(CC(CO)C3)C1)C(=O)c1cccc(c1)S(=O)(=O)N2` (stereo in doubt) [Compound 79], for which the “Ent. B Max Activity” value is “+++ (+++ is >60%)” and the EC50 was < 1 µM.

`COc1ccccc1-c1c2nc(nc1-c1c(C)cccc1C)NS(=O)(=O)c1cccc(c1)C(=O)NC[C@@H](C)O2` [Compound 153]: the “Ent. B Max Activity” value was “+++ (+++ is >60%)” and the EC50 was < 1 µM.

With `Cc1cccc(C)c1-c1nc2nc(c1C)OC[C@@H](CC(C)(C)C(F)(F)F)N(C1CC3(CCN(C(=O)OC(C)C)CC3)C1)C(=O)c1cccc(c1)S(=O)(=O)N2` [Compound 184], the “Ent. B Max Activity” value is recorded as “+++ (+++ is >60%)” and the EC50 was < 1 µM.

For `Cc1cccc(C)c1-c1nc2nc(c1C)OC[C@@H](CC(C)(C)O)NC(=O)c1cccc(c1)S(=O)(=O)N2` [Compound 105, (11R)-6-(2,6-Dimethylphenyl)-11-(2-hydroxy-2-methyl-propyl)-7-methyl-2,2-dioxo-9-oxa-2λ^6-thia-3,5,12,19-tetrazatricyclo[12.3.1.14,8]nonadeca-1(18),4(19),5,7,14,16-hexaen-13-one], the “Ent. B Max Activity” value is on record as “+++ (+++ is >60%)” and the EC50 lay in the range of 3 to 30 µM.

Consider `Cc1cccc(C)c1-c1nc2nc(c1C)OC[C@@H](CC(C)(C)O)N(C1CC3(CC3)C1)C(=O)c1cccc(c1)S(=O)(=O)N2` [Compound 108, (11R)-6-(2,6-Dimethylphenyl)-11-(2-hydroxy-2-methyl-propyl)-7-methyl-2,2-dioxo-12-spiro[2.3]hexan-5-yl-9-oxa-2λ^6-thia-3,5,12,19-tetrazatricyclo[12.3.1.14,8]nonadeca-1(18),4(19),5,7,14,16-hexaen-13-one], for which the “Ent. B Max Activity” value is on record as “+++ (+++ is >60%)” and the EC50 was in the range of 1 to 3 µM.

In the case of `Cc1cccc(C)c1-c1nc2nc(c1/C=C/C(C)(C)C)O[C@H](C)CNC(=O)c1cccc(c1)S(=O)(=O)N2` [Compound 121, (10R)-7-[(E)-3,3-Dimethylbut-1-enyl]-6-(2,6-dimethylphenyl)-10-methyl-2,2-dioxo-9-oxa-2λ^6-thia-3,5,12,19-tetrazatricyclo[12.3.1.14,8]nonadeca-1(18),4(19),5,7,14,16-hexaen-13-one], the “Ent. B Max Activity” value is “+++ (+++ is >60%)” and the EC50 is < 1 µM.

`Cc1cccc(C)c1-c1nc2nc(c1C1=CCOCC1)O[C@H](C)CNC(=O)c1cccc(c1)S(=O)(=O)N2` [Compound 152]: the “Ent. B Max Activity” value is “++ (++ is 30-60%)” and the EC50 was in the range of 3 to 30 µM.

As to `Cc1cccc(C)c1-c1nc2nc(c1C(=O)O)OC[C@@H](CC(C)C)N(C1CC3(CC3)C1)C(=O)c1cccc(c1)S(=O)(=O)N2` [Compound 168, (11R)-6-(2,6-Dimethylphenyl)-11-isobutyl-2,2,13-trioxo-12-spiro[2.3]hexan-5-yl-9-oxa-2λ^6-thia-3,5,12,19-tetrazatricyclo[12.3.1.14,8]nonadeca-1(18),4(19),5,7,14,16-hexaene-7-carboxylic acid], the “Ent. B Max Activity” value is “+ (+ is <30%)”.

Take `Cc1cccc(C)c1-c1nc2nc(c1C1CCN(C(=O)OC(C)(C)C)CC1)O[C@H](C)CNC(=O)c1cccc(c1)S(=O)(=O)N2` [Compound 150]: the “Ent. B Max Activity” value was “++ (++ is 30-60%)” and the EC50 was in the range of 1 to 3 µM.

Turning to `Cc1cccc(C)c1-c1nc2nc(c1C)OC[C@@H](CC(C)(C)C)N(C1CC3(CC(NC(=O)OC(C)(C)C)C3)C1)C(=O)c1cccc(c1)S(=O)(=O)N2` (single isomer, unassigned) [Compound 60], the “Ent. B Max Activity” value was “+++ (+++ is >60%)” and the EC50 is < 1 µM.

Take `COC1CC(N2C(=O)c3cccc(c3)S(=O)(=O)Nc3nc(c(C)c(-c4c(C)cccc4C)n3)OC[C@H]2CC(C)C)C1` (stereo in doubt) [Compound 72]: the “Ent. B Max Activity” value is “+++ (+++ is >60%)” and the EC50 is < 1 µM.

Take `COC(=O)NC1CC2(C1)CC(N1C(=O)c3cccc(c3)S(=O)(=O)Nc3nc(c(C)c(-c4c(C)cccc4C)n3)OC[C@H]1CC1(C(F)(F)F)CC1)C2` (stereo in doubt) [Compound 88]: the “Ent. B Max Activity” value is listed as “+++ (+++ is >60%)” and the EC50 was < 1 µM.

With `COc1ccccc1-c1c2nc(nc1-c1c(C)cccc1C)NS(=O)(=O)c1cccc(c1)C(=O)N[C@H](C)CO2` [Compound 123, (11R)-6-(2,6-Dimethylphenyl)-7-(2-methoxyphenyl)-11-methyl-2,2-dioxo-9-oxa-2λ^6-thia-3,5,12,19-tetrazatricyclo[12.3.1.14,8]nonadeca-1(18),4(19),5,7,14,16-hexaen-13-one], the “Ent. B Max Activity” value is on record as “+++ (+++ is >60%)” and the EC50 was 1 to 3 µM.

As for `Cc1cccc(C)c1-c1nc2nc(c1C)OC[C@@H](CC(C)C)N(C1CC3(CCN(C(=O)OC(C)C)CC3)C1)C(=O)c1cccc(c1)S(=O)(=O)N2` [Compound 70], the “Ent. B Max Activity” value is listed as “+++ (+++ is >60%)” and the EC50 is < 1 µM.

With `COCCN1CCC2(CC1)CC(N1C(=O)c3cccc(c3)S(=O)(=O)Nc3nc(c(F)c(-c4c(C)cccc4C)n3)OC[C@H]1CC(C)C)C2` [Compound 185], the “Ent. B Max Activity” value was “+++ (+++ is >60%)” and the EC50 was < 1 µM.

Regarding `Cc1cccc(C)c1-c1nc2nc(c1C)OC[C@@H](CC1(C(F)(F)F)CC1)N(C1CC3(CCN(C(=O)OC(C)C)CC3)C1)C(=O)c1cccc(c1)S(=O)(=O)N2` [Compound 76], the “Ent. B Max Activity” value is “+++ (+++ is >60%)” and the EC50 was < 1 µM.

Take `Cc1cccc(C)c1-c1nc2nc(c1/C=C/C(C)(C)C)OC[C@@H](CC(C)C)NC(=O)c1cccc(c1)S(=O)(=O)N2` [Compound 126, (11R)-7-[(1E)-3,3-dimethylbut-1-en-1-yl]-6-(2,6-dimethylphenyl)-11-(2-methylpropyl)-9-oxa-2λ^6-thia-3,5,12,19-tetraazatricyclo[12.3.1.14,8]nonadeca-1(17),4,6,8(19),14(18),15-hexaene-2,2,13-trione]: the “Ent. B Max Activity” value was “+++ (+++ is >60%)” and the EC50 was < 1 µM.

`Cc1cccc(C)c1-c1nc2nc(c1-c1cccnc1)O[C@H](C)CNC(=O)c1cccc(c1)S(=O)(=O)N2` [Compound 133]: the “Ent. B Max Activity” value was “+ (+ is <30%)”.

`COC1CC(N2C(=O)c3cccc(c3)S(=O)(=O)Nc3nc(c(C)c(-c4c(C)cccc4C)n3)OC[C@H]2CC(C)C)C1` (stereo in doubt) [Compound 71]: the “Ent. B Max Activity” value is listed as “+++ (+++ is >60%)” and the EC50 was < 1 µM.

With `Cc1cccc(C)c1-c1nc2nc(c1C)OC[C@@H](CC1(C(F)(F)F)CC1)N(C1CC3(CC(CO)C3)C1)C(=O)c1cccc(c1)S(=O)(=O)N2` (stereo partly shown) [Compound 80], the “Ent. B Max Activity” value is “+++ (+++ is >60%)” and the EC50 was < 1 µM.

For `Cc1cccc(C)c1-c1nc2nc(c1-c1ccn(C)n1)OC[C@@H](C)NC(=O)c1cccc(c1)S(=O)(=O)N2` [Compound 137], the “Ent. B Max Activity” value is listed as “+ (+ is <30%)”.

`Cc1cccc(C)c1-c1nc2nc(c1C)OC[C@@H](CC1(C(F)(F)F)CC1)N(C1CC3(CC(N(C)C)C3)C1)C(=O)c1cccc(c1)S(=O)(=O)N2` (stereo in doubt) [Compound 91]: the “Ent. B Max Activity” value was “+++ (+++ is >60%)” and the EC50 is < 1 µM.

On to `COc1c2nc(nc1-c1c(C)cccc1C)NS(=O)(=O)c1cccc(c1)C(=O)N(C1CC3(CC3)C1)[C@H](CC(C)C)CO2` [Compound 179], for which the “Ent. B Max Activity” value is on record as “+++ (+++ is >60%)” and the EC50 is < 1 µM.

The values above are taken from patent US20230374038A1, “MODULATORS OF CYSTIC FIBROSIS TRANSMEMBRANE CONDUCTANCE REGULATOR” (VERTEX PHARMACEUTICALS INCORPORATED, priority 2020, published 2023).
